Results taken from patent US20120035156A1, “COMBINATION OF GLYT1 COMPOUND WITH ANTIPSYCHOTICS” (priority 2010, published 2012).
Values joined by “and” are separate entries in the source; they are usually repeats but may differ in a detail not shown here. Equal values may be shown once. Read-outs that look alike come from different tables or passages of the source.

Tests used:
schizophrenic patients = settings: added to conventional therapy; cited from earlier work
[1] = tested on: L-687,414-induced hyperlocomotion; assay: Reversal of L-687,414-induced hyperlocomotion in mice; type: in vivo; settings: for ED50: Mus musculus, po, 1 h, read-out: ED50 of compound alone, L-687,414-induced hyperlocomotion; for reversal of hyperlocomotion induced by L-687,414 (in words): single agents, mice, L-687,414 50 mg/kg
Experimental: RG1678, [4-(3-Fluoro-5-trifluoromethyl-pyridin-2-yl)-piperazin-1-yl]-[5-methanesulfonyl-2-((S)-2,2,2 trifluoro-1-methyl-ethoxy)-phenyl]-methanone (WO05/014563) and L-687,414, ((3R,4R)-3-amino-1-hydroxy-4-methylpyrrolidin-2-one (Tetrahedron Letters, Vol. 49, issue 42, 2008, 6079-6080) and olanzapine were synthesized according to known methods by the Medicinal Chemistry Department of F. Hoffmann-La Roche, and risperidone was purchased from Sigma. All drugs were dissolved in H2O/0.3% Tween 80 and administered orally in a volume of 10 ml/kg body weight.
Male NMRI mice (20-30 g) supplied from Iffa Credo, Lyon, France, were housed in a vivarium at controlled temperature (20-22° C.) and a 12 hr light/dark cycle (lights on 6:00 a.m. Animals were allowed ad libitum access to food and water. The experimental procedures used in the present study received prior approval from the City of Basel Cantonal Animal Protection Committee based on adherence to federal and local regulations. Behavioral experiments were conducted during the hours of 8:00 a.m. and 2:00 p.m.
A computerized Digiscan 16 Animal Activity Monitoring System (Omnitech Electronics, Columbus, Ohio) was used to quantify locomotor activity. Data were obtained simultaneously from eight Digiscan activity chambers placed in a soundproof room with a 12 hr light/dark cycle. Experiments were performed during the light phase between 06:30 a.m. and 5:00 p.m. Each activity monitoring chamber consisted of a Plexiglas box (41×41×28 cm; W×L×H) with sawdust bedding on the floor surrounded by invisible horizontal and vertical infrared sensor beams. The chambers were divided by a Plexiglas cross providing each mouse with 20×20 cm of moving space. Two animals per box were monitored simultaneously. Chambers were connected to a Digiscan Analyzer linked to a computer that constantly collected the beam status information. The activity detector operates by counting the number of times the beams change from uninterrupted to interrupted status or vice-versa. Records of photocell beam interruptions for individual animals were taken every five minutes over the duration of the experimental session. Mice were first treated with RG1678 at different doses or at a fixed low dose administered p.o. and, 30 minutes later, treated with an antipsychotic at different doses or at a fixed low dose administered p.o. Fifteen minutes after the antipsychotic treatment mice received a s.c. injection of 50 mg/kg of L-687,414. Mice were then transferred from their home cages to the recording chambers for a 15-min habituation phase allowing free exploration of the new environment. Horizontal activity was then recorded for a 60-min time period. The horizontal activity value for each group of animals at a given dose of RG1678 alone or in combination with an antipsychotic (y1) was expressed as % of L-687,414-induced hyperlocomotion and calculated according to the equation (((y1−vehicle horizontal activity)/(L-687,414 horizontal activity−vehicle horizontal activity))×100). For dose-response experiments, the horizontal activity value for each group of animal at a given dose of GlyT1 inhibitor or antipsychotics (y1) was expressed as a percent of L-687,414-induced hyperlocomotion and calculated according to the equation (((y1−vehicle horizontal activity)/(L-687,414 horizontal activity−vehicle horizontal activity))×100). ID50 values, defined as doses of each compound producing 50% inhibition of L-687,414-induced hyperlocomotion, were calculated by linear regression analysis of the dose-response data using an Excel-based computer curve-fitting program.

[2] = tested on: L-687,414-induced hyperlocomotion; settings: mice; D. Alberati et al 2010; cited from earlier work

In the case of `N[C@H](CO)C(=O)O` [D-serine], the “effect on positive, negative and cognitive symptoms” value (“effect on positive” below) (schizophrenic patients) is given as “improved positive, negative and cognitive symptoms”.
With `C[C@H](Oc1ccc(S(C)(=O)=O)cc1C(=O)N1CCN(c2ncc(C(F)(F)F)cc2F)CC1)C(F)(F)F` [RG1678] the ED50 ([1]; male NMRI mice, p.o., L-687,414 50 mg/kg s.c., horizontal activity recorded 1 hour) was 0.76 mg/kg, the “reversal of hyperlocomotion induced by RG1678 alone” value ([1]; RG1678 0.6 mg/kg p.o., male NMRI mice, L-687,414 50 mg/kg s.c.) was 19% and 21% and the “reversal of hyperlocomotion induced by L-687,414 (in words)” value [1] was “dose-dependently reversed hyperlocomotion”.
In the case of `O=C1CCc2ccc(OCCCCN3CCN(c4cccc(Cl)c4Cl)CC3)cc2N1` [aripiprazole, 7-{4-[4-(2,3-dichlorophenyl)piperazin-1-yl]butoxy}-3,4-dihydroquinolin-2(1H)-one], the “prevention of hyperlocomotion induced by L-687,414 (assay validation)” value (“prevention of hyperlocomotion induced” below) [2] is given as “effective in preventing this behavioral effect in a dose-dependant manner”.
For `NCC(=O)O` [glycine], the “prevention of hyperlocomotion induced” value [2] is listed as “dose-dependently blocked hyperlocomotion” and the “effect on positive” value (schizophrenic patients) is listed as “improved positive, negative and cognitive symptoms”.
In the case of `O=C(CCCN1CCC(O)(c2ccc(Cl)cc2)CC1)c1ccc(F)cc1` [haloperidol], the “prevention of hyperlocomotion induced” value [2] is given as “effective in preventing this behavioral effect in a dose-dependant manner”.
With `Cc1cc2c(s1)Nc1ccccc1N=C2N1CCN(C)CC1` [olanzapine, 2-methyl-4-(4-methyl-1-piperazinyl)-10H-thieno[2,3-b][1.5]benzodiazepine] the ED50 [1] was 0.06 mg/kg and the “reversal of hyperlocomotion induced by olanzapine alone” value ([1]; olanzapine 0.05 mg/kg p.o., male NMRI mice, L-687,414 50 mg/kg s.c.) was 34%.
In the case of `Cc1nc2n(c(=O)c1CCN1CCC(c3noc4cc(F)ccc34)CC1)CCCC2` [risperidone, 3-[2-[4-(6-fluoro-1,2-benzisoxazol-3-yl)piperidino]ethyl]-2.methyl-6,7,8,9-tetrahydro-4H-pyrido-[1.2-a]pyrimidin-4-one], the “prevention of hyperlocomotion induced” value [2] is listed as “effective in preventing this behavioral effect in a dose-dependant manner”, the ED50 [1] is listed as 0.023 mg/kg and the “reversal of hyperlocomotion induced by risperidone alone” value ([1]; risperidone 0.005 mg/kg p.o., male NMRI mice, L-687,414 50 mg/kg s.c.) is listed as 15%. For the same compound, the “reversal of hyperlocomotion induced by L-687,414 (in words)” value [1] was “dose-dependently reversed hyperlocomotion”.
In the case of `CNCC(=O)O` [sarcosine], the “effect on positive” value (schizophrenic patients) is listed as “improved positive, negative and cognitive symptoms”.
